Reference: ChEMBL document CHEMBL5050844 (2019)

Tests used:
Type in all cases: functional, T cell line
[1] = Induction of anti-CD3/CD28 antibodies-stimulated human T cell activation at 0.3 uM assessed fold increase in CD25 expression measured by ELISA assay
[2] = Induction of anti-CD3 antibodies-stimulated human T cell activation at 8 uM assessed fold increase in IL-2 secretion measured by ELISA assay
[3] = Induction of anti-CD3 antibodies-stimulated human T cell activation at 1 uM assessed fold increase in IL-2 secretion measured by ELISA assay
[4] = Induction of anti-CD3/CD28 antibodies-stimulated human T cell activation at 0.3 uM assessed fold increase in IL-2 secretion measured by ELISA assay
[5] = Induction of anti-CD3/CD28 antibodies-stimulated human T cell activation at 4 uM assessed fold increase in IL-2 secretion measured by ELISA assay
[6] = Induction of anti-CD3/CD28 antibodies-stimulated human T cell activation at 1 uM assessed fold increase in CD25 expression measured by ELISA assay
[7] = Induction of anti-CD3/CD28 antibodies-stimulated human T cell activation at 1 uM assessed fold increase in IL-2 secretion measured by ELISA assay
[8] = Induction of anti-CD3 antibodies-stimulated human T cell activation at 8 uM assessed fold increase in CD25 expression measured by ELISA assay
[9] = Induction of anti-CD3/CD28 antibodies-stimulated human T cell activation at 4 uM assessed fold increase in CD25 expression measured by ELISA assay
[10] = Induction of anti-CD3 antibodies-stimulated human T cell activation at 1 uM assessed fold increase in CD25 expression measured by ELISA assay

## Cn1cnnc1CC1(c2cccc(NC(=O)c3ccnc(C(F)(F)F)n3)c2)COC1
[1]
  fold change (FC): 1.01
[2]
  fold change (FC): 0.151
[3]
  fold change (FC): 0.051
[4]
  fold change (FC): 1.01
[5]
  fold change (FC): 2.51
[6]
  fold change (FC): 1.01
[7]
  fold change (FC): 2.51
[8]
  fold change (FC): >=1.001
[9]
  fold change (FC): 1.01
[10]
  fold change (FC): 0.601

## C[C@H](Cc1nncn1C)c1cccc(NC(=O)c2cc(C(C)(C)O)c(Cl)cn2)c1
[1]
  fold change (FC): 1.01
[2]
  fold change (FC): 0.101
[3]
  fold change (FC): 0.051
[4]
  fold change (FC): 2.51
[5]
  fold change (FC): 5
[6]
  fold change (FC): 1.31
[7]
  fold change (FC): 1.01
[8]
  fold change (FC): <=0.6
[9]
  fold change (FC): >=1.76
[10]
  fold change (FC): <=0.6

## C[C@H](Cc1nncn1C)c1cccc(NC(=O)c2ccn3nccc3n2)c1
[1]
  fold change (FC): 1.01
[2]
  fold change (FC): 0.151
[3]
  fold change (FC): 0.051
[4]
  fold change (FC): 1.01
[5]
  fold change (FC): 2.51
[6]
  fold change (FC): 1.01
[7]
  fold change (FC): 1.01
[8]
  fold change (FC): >=1.001
[9]
  fold change (FC): 1.01
[10]
  fold change (FC): 0.601

## Cc1c[nH]nc1C[C@H](C)c1cccc(N2Cc3c(cccc3C(F)(F)F)C2=O)c1 (single isomer, unassigned)
[1]
  fold change (FC): 1.01
[2]
  fold change (FC): 0.151
[3]
  fold change (FC): 0.101
[4]
  fold change (FC): 1.01
[5]
  fold change (FC): 1.01
[6]
  fold change (FC): 1.01
[7]
  fold change (FC): 1.01
[8]
  fold change (FC): 0.801
[9]
  fold change (FC): 1.01
[10]
  fold change (FC): 0.601

## CCn1cnnc1C[C@@H](C)c1cccc(NC(=O)c2cc(C(=O)N3C[C@@H](O)C[C@H]3C)ccn2)c1
[1]
  fold change (FC): 1.01
[2]
  fold change (FC): 0.151
[3]
  fold change (FC): 0.151
[4]
  fold change (FC): <=1
[5]
  fold change (FC): 1.01
[6]
  fold change (FC): 1.01
[7]
  fold change (FC): <=1
[8]
  fold change (FC): 0.601
[9]
  fold change (FC): 1.01
[10]
  fold change (FC): 0.601

## Cc1ccc(C(=O)Nc2cccc([C@H](C)Sc3nncn3C)c2)nc1C(F)(F)F
[1]
  fold change (FC): <=1
[2]
  fold change (FC): <=0.05
[3]
  fold change (FC): <=0.05
[4]
  fold change (FC): <=1
[5]
  fold change (FC): 1.01
[6]
  fold change (FC): 1.01
[7]
  fold change (FC): <=1
[8]
  fold change (FC): >=1.001
[9]
  fold change (FC): 1.01
[10]
  fold change (FC): 0.601

## Cc1cccc2nc(C(=O)Nc3cccc([C@H](C)Sc4nncn4C)c3)ccc12
[1]
  fold change (FC): 1.01
[2]
  fold change (FC): 0.101
[3]
  fold change (FC): <=0.05
[4]
  fold change (FC): 2.51
[5]
  fold change (FC): >=7.5
[6]
  fold change (FC): 1.01
[7]
  fold change (FC): 5
[8]
  fold change (FC): 0.801
[9]
  fold change (FC): 1.01
[10]
  fold change (FC): 0.801

## C[C@H](Sc1nncn1C)c1ccc(F)c(NC(=O)c2cccc(C(F)(F)F)n2)c1
[1]
  fold change (FC): <=1
[2]
  fold change (FC): 0.051
[3]
  fold change (FC): <=0.05
[4]
  fold change (FC): 1.01
[5]
  fold change (FC): 2.51
[6]
  fold change (FC): 1.01
[7]
  fold change (FC): 1.01
[8]
  fold change (FC): <=0.6
[9]
  fold change (FC): 1.01
[10]
  fold change (FC): <=0.6

## Cn1cnnc1C(F)(F)[C@](C)(F)c1cccc(N2Cc3c(cc(-c4cncc(F)c4)cc3C(F)(F)F)C2=O)c1
[1]
  fold change (FC): <=1
[2]
  fold change (FC): 0.151
[3]
  fold change (FC): 0.101
[4]
  fold change (FC): 1.01
[5]
  fold change (FC): 2.51
[6]
  fold change (FC): 1.01
[7]
  fold change (FC): 2.51
[8]
  fold change (FC): 0.801
[9]
  fold change (FC): 1.01
[10]
  fold change (FC): 0.601
